Source: PubChem BioAssay AID463074 (Broad Institute, 2010)
Activity calls are given as the source filed them.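 The calls were made as follows: active = AC50 no more than tenfold above the top dose tested, or full inhibition at every dose with a flat fit (cut at about 19 µM in these data); inconclusive = flat curve fit with inhibition between 30% and 70%, or poor fit; inactive = AC50 more than tenfold above the top dose tested.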

Tested on: HMLE_sh_eGFP viability, CellTiter-Glo luminescence, 72 h
Test: cytotoxicity in HMLE control line with eGFP shRNA, dose response, counter-screen for HMLE_sh_ECad selective toxicity project, cell-based, HMLE_sh_eGFP, luminescence (AID 463074);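 also: counterscreen control line to flag general toxicity for the HMLE_sh_ECad screen; potency for loss of viability as luminescence drops below DMSO wells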

Compound | AC50
C=C(C)COc1ccc(-c2nc(N)ncc2-c2ccc(Cl)cc2)c(O)c1 | 4 µM
O=C(CCOc1ccccc1)N1CCN(c2ccc(O)cc2)CC1 | 3.25 µM
C1=C(c2sc3ccccc3c2-c2ccc(OCCN3CCOCC3)cc2)CCCC1 | 1.94 µM
CCN(c1ccccc1)S(=O)(=O)c1cccc(C(=O)NCC(c2cccs2)N2CCOCC2)c1 (stereo not given) | > 19.5 µM (inactive)
OC(CNCC1CCCO1)Cn1c2ccc(Cl)cc2c2cc(Cl)ccc21 (stereo not given) | 7.38 µM
COc1cccc(/C=N/NC(=O)c2ccc(-c3ccccc3)cc2)c1O | 3.33 µM
CCc1ccc(CCC(=O)Nc2ncc(Cc3ccccc3Cl)s2)o1 | 0.322 µM
COc1cc(OC)cc(C(=O)Nc2ccc(Nc3ccccc3)cc2)c1 | 7.41 µM
CC12CCC(C/C1=N\N=C1\NC(=O)/C(=C\c3ccc(Cl)cc3)S1)C2(C)C (stereo not given) | 3.25 µM
O=C(Cn1ncc(Cl)c(Cl)c1=O)N1CCN(S(=O)(=O)c2ccc3ccccc3c2)CC1 | 6.11 µM
Cc1cccc(-n2cc(-c3ccccc3)c3c(N4CCOCC4)ncnc32)c1 | 4.59 µM
COc1ccccc1CNC(=S)Nc1ccc2nc(N3CCN(C)CC3)cc(C)c2c1 | 0.427 µM
O=C(CN1CCCC1)Nc1ccc(Cl)cc1C(=O)c1ccccc1 | 15.3 µM
C=CCn1c(O)c(C2=c3ccccc3=NC2=O)sc1=Nc1ccc(O)cc1 | 6.76 µM
CCCc1cc(=O)[nH]c(SCC(=O)Nc2sc(C(N)=O)c(C)c2C(=O)OCCOC)n1 | 4.25 µM
CCOC(=O)c1[nH]c(C)c(C(=O)OCc2ccccc2F)c1C | 1.03 µM
N#C/C(=C\c1c(F)cccc1Cl)c1nn(-c2ccccc2)c(-n2cccc2)c1C#N | 1.71 µM
COC(=O)c1cc(=O)n(Cc2ccc(F)cc2)c(=Nc2ccccc2)s1 | 5.87 µM
Cc1cccc(NC(=O)c2ccc(COc3ccc(Cl)cc3Cl)o2)n1 | 3.38 µM
CCOCCCNC(=O)/C(C#N)=C/c1ccc([N+](=O)[O-])o1 | 8.21 µM

Compound | AC50
O=C(Nc1cccc(-c2csc(Nc3ccc(Cl)cc3)n2)c1)c1cc([N+](=O)[O-])cc(C(F)(F)F)c1 | 6.88 µM
CCCCCC(=O)Nc1nc(C)c(-c2csc(Nc3cc(OC)ccc3OC)n2)s1 | 2.11 µM
Cc1cccc(N/N=C(\C(N)=O)C2=NC(C)(C)Cc3ccccc32)c1 | 10.9 µM
C=C(CC[C@@H](O)C(C)(C)O)[C@H]1CC[C@]2(C)[C@@H]1CCC1[C@@]3(C)CC[C@H](O)C(C)(C)C3CC[C@]12C (stereo not given in full) | 1.13 µM
O=C(NCc1cccnc1)/C(=C/c1ccc(-c2cccc(Cl)c2)o1)S(=O)(=O)c1ccccc1 | 2.66 µM
Cc1ccccc1/C=N/Nc1ccnc2cc(Cl)ccc12 | 4.44 µM
Cc1[nH]c2ccccc2c1/C=N/NC(=O)C1CC1(c1ccccc1)c1ccccc1 (stereo not given) | 6.08 µM
C=CCC[C@@H](Cc1ccc(F)cc1)C(=O)OC[C@@H](Cc1c[nH]c2ccccc12)NC(=O)[C@@H](CC=C)CC(=O)N(CCO)Cc1ccccc1 | 7.13 µM
Cc1cc(O)c(C(C)C)cc1C1(c2cc(C(C)C)c(O)cc2C)OC(=O)c2ccccc21 | 3.23 µM
O=c1c2ccccc2nc(/C=C/c2ccccc2F)n1-c1ccccc1O | 6.44 µM
S=C(Nc1cc(Cl)cc(Cl)c1)NC1CCN(Cc2ccccc2)CC1 | 4.23 µM
C[C@@H]1O[C@@H](O[C@H]2C[C@@H](O)[C@]3(CO)[C@@H]4C(CC[C@]3(O)C2)[C@@]2(O)CC[C@H](C3COC(=O)C3)[C@@]2(C)C[C@H]4O)[C@H](O)[C@H](O)[C@H]1O (stereo not given in full) | 0.707 µM
NC(=O)CC(NC(=O)Cc1cccc2ccccc12)c1ccc(NCc2ccccc2)c([N+](=O)[O-])c1 (stereo not given) | 5.84 µM
COc1cc(-c2noc(C)c2C#Cc2ccccn2)cc(OC)c1OC | 1.16 µM
Cc1ccc(/C=C/C(=O)NCCc2ccccc2)o1 | > 19.5 µM (inactive)
Cc1ccc(-c2cc(NC(=O)CCl)n(-c3ccccc3)n2)cc1 | 7.29 µM
COc1cccc(C2C3=C(N=c4s/c(=C\c5cccc(O)c5)c(=O)n42)c2ccccc2CC3)c1OC (stereo not given) | 8.57 µM
Cc1cc(=O)[nH]c(N/N=C/c2ccc(-c3ccc(F)cc3)o2)n1 | 18.1 µM
Nc1cc(-c2ccc(OC(F)(F)F)cc2)nn1-c1ccc(Cl)c(Cl)c1 | 5.83 µM
COc1ccc2nc(C)cc(N/N=C/c3ccccc3)c2c1 | 7.36 µM
